In ChEMBL document CHEMBL3102743, “Regulation of crosstalk between epithelial to mesenchymal transition molecules and MMP-9 mediates the antimetastatic activity of anethole in DU145 prostate cancer cells” (J Nat Prod, 2014):
Calls of active or inactive are those of the source.

Assays:
[1] = tested on: DU-145; assay: Antimetastatic activity in human DU145 cells assessed as increase of E-cadherin expression at 100 uM after 24 hrs by immunofluorescence analysis in presence of TGF-beta; format: functional, cell-based
[2] = tested on: DU-145; assay: Antimetastatic activity in human DU145 cells assessed as reduction of vimentin expression at 100 uM after 24 hrs by Western blotting in presence of TGF-beta; format: functional, cell-based
[3] = tested on: DU-145; assay: Antimetastatic activity in human DU145 cells assessed as reduction of twist expression at 100 uM after 24 hrs by Western blotting in presence of TGF-beta; format: functional, cell-based
[4] = tested on: DU-145; assay: Antimetastatic activity in human DU145 cells assessed as increase of E-cadherin expression at 100 uM after 24 hrs by Western blotting in presence of TGF-beta; format: functional, cell-based
[5] = tested on: DU-145; assay: Antiinvasive activity in human DU145 cells assessed as reduction of number of invaded cells through matrigel at 100 uM after 8 hrs by Boyden chamber invasion assay in presence of TGF-beta; format: functional, cell-based
[6] = tested on: DU-145; assay: Antimetastatic activity in human DU145 cells assessed as decrease of MMP9 expression at 100 uM in presence of TGF-beta; format: functional, cell-based
[7] = tested on: DU-145; assay: Antimetastatic activity in MMP9 siRNA transfected human DU145 cells assessed as increase of vimentin expression at 25 to 100 uM by Western blotting; format: functional, cell-based
[8] = tested on: DU-145; assay: Antimetastatic activity in MMP9 siRNA transfected human DU145 cells assessed as increase of E-cadherin expression at 25 to 100 uM by Western blotting; format: functional, cell-based
[9] = target: Matrix metalloproteinase-9 (Homo sapiens) (UniProt P14780); assay: Inhibition of MMP9 in human DU145 cells after 24 hrs by SDS-PAGE gelatin zymography assay; format: cell-based; details: DU-145
[10] = tested on: DU-145; assay: Antimetastatic activity in human DU145 cells assessed as decrease of MMP9 mRNA expression at 25 to 100 uM by RT-PCR analysis; format: functional, cell-based
[11] = tested on: DU-145; assay: Antimetastatic activity in human DU145 cells assessed as decrease of PI3K/Akt expression by Western blotting; format: functional, cell-based
[12] = tested on: DU-145; assay: Antimetastatic activity in human DU145 cells assessed as decrease of snail mRNA expression at 25 to 100 uM by RT-PCR analysis; format: functional, cell-based
[13] = tested on: DU-145; assay: Antimetastatic activity in human DU145 cells assessed as decrease of twist mRNA expression at 25 to 100 uM by RT-PCR analysis; format: functional, cell-based
[14] = tested on: DU-145; assay: Antimetastatic activity in human DU145 cells assessed as decrease of vimentin mRNA expression at 25 to 100 uM by RT-PCR analysis; format: functional, cell-based
[15] = tested on: DU-145; assay: Antimetastatic activity in human DU145 cells assessed as increase of E-cadherin mRNA expression at 25 to 100 uM by RT-PCR analysis; format: functional, cell-based
[16] = tested on: DU-145; assay: Antimetastatic activity in human DU145 cells assessed as decrease of twist expression at 25 to 100 uM by Western blotting; format: functional, cell-based
[17] = tested on: DU-145; assay: Antimetastatic activity in human DU145 cells assessed as decrease of vimentin expression at 25 to 100 uM by Western blotting; format: functional, cell-based
[18] = tested on: DU-145; assay: Antimetastatic activity in human DU145 cells assessed as increase of E-cadherin expression at 25 to 100 uM by Western blotting; format: functional, cell-based
[19] = tested on: DU-145; assay: Antimigratory activity in human DU145 cells at 100 uM by wound-healing assay; format: functional, cell-based
[20] = tested on: DU-145; assay: Antiinvasive activity in human DU145 cells assessed as reduction of number of invaded cells through matrigel at 25 to 100 uM after 8 hrs by Boyden chamber invasion assay; format: functional, cell-based
[21] = tested on: DU-145; assay: Inhibition of cell adhesion in human DU145 cells in vitronectin-coated plates at 25 to 100 uM; format: functional, cell-based
[22] = tested on: DU-145; assay: Cytotoxicity against human DU145 cells assessed as cell viability up to 200 uM after 24 hrs by MTT assay; format: cell-based; details: du-145, 24 h

Matrix metalloproteinase-9 (Homo sapiens), sequence (P14780 whole entry): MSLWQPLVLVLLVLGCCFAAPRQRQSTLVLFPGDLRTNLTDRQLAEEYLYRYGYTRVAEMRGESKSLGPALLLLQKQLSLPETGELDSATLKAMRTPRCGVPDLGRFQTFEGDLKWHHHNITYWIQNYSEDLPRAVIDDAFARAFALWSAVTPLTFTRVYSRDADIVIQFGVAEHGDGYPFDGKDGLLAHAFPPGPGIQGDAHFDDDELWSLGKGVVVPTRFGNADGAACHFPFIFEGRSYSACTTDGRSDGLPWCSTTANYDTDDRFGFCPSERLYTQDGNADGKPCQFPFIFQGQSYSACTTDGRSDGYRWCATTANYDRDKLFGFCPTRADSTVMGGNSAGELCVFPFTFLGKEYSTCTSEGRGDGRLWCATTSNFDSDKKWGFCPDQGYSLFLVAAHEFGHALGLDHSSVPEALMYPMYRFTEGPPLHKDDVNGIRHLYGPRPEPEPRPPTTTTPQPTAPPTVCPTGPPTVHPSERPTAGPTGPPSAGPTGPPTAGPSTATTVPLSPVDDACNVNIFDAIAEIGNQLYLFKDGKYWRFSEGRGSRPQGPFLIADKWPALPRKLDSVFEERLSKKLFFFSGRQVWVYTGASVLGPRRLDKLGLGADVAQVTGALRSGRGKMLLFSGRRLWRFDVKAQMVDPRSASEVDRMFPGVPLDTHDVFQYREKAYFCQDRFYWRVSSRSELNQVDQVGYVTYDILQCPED

C/C=C/c1ccc(OC)cc1 [ANETHOLE]
active: inhibition [9] Dose-dependent effect | Activity [10] | Activity [11] Dose-dependent effect | Activity [12] | Activity [13] | Activity [14] | Activity [15] | Activity [16] | Activity [17] | Activity [18] | Activity [19] | Activity [20] | inhibition [21]
inactive: Activity [1] | Activity [2] | Activity [3] | Activity [4] | Activity [5] | Activity [6] | Activity [7] | Activity [8]
Non-toxic: Activity [22]
